Source: ChEMBL document CHEMBL5143724, “Small Molecules Promote Selective Denaturation and Degradation of Tubulin Heterodimers through a Low-Barrier Hydrogen Bond” (J Med Chem, 2022)
One block for each compound: values may come before it. Activity calls are given as the source filed them. The calls are words filed in the database; no cut-off is given here.

Experiments:
[1] = target: T1, Tubulin alpha (Homo sapiens) (UniProt P0DPH7+P68366+Q71U36+P68363+Q9BQE3+Q6PEY2+A6NHL2+Q9NY65); experiment: Induction of Alpha tubulin degradation in human HeLa cells incubated for 24 hrs by immunoblot analysis; format: cell-based; settings: DDE = dose-dependent effect
[2] = target: T2, Tubulin beta (Homo sapiens) (UniProt P68371+Q9H4B7+Q13509+P04350+Q3ZCM7+P07437+Q13885+Q9BVA1+Q9BUF5+A6NNZ2); experiment: Induction of Beta tubulin degradation in human HeLa cells incubated for 24 hrs by immunoblot analysis; format: cell-based; settings: DDE = dose-dependent effect
[3] = target: T1, Tubulin alpha (Homo sapiens); experiment: Induction of Alpha tubulin degradation in human HCT-116 cells incubated for 24 hrs by immunoblot analysis; format: cell-based; settings: dose 0.3-30 µM, DDE = dose-dependent effect
[4] = target: T1, Tubulin alpha (Homo sapiens); experiment: Induction of Alpha tubulin degradation in human HeLa cells at 1 uM incubated for 16 hrs in presence of maytansine by immunoblot analysis; format: cell-based
HeLa [5] = experiment: Reduction in Alpha tubulin mRNA expression in human HeLa cells at 1 uM measured upto 16 hrs by qPCR analysis; format: functional, cell-based
Tubulin (Homo sapiens) = Tubulin (Homo sapiens) (UniProt P68371+Q9H4B7+P0DPH7+P68366+Q13509+Q71U36+P04350+Q3ZCM7+P07437+P68363+Q9BQE3+Q6PEY2+Q13885+Q9BVA1+Q9BUF5); experiment: Induction of tubulin denaturation (unknown origin) pre incubated for 2 to 8 hrs with compound followed by GH addition measured after 30 mins by spectrophotometer based microplate reader method; format: protein-complex assay; settings: time 2.5-8.5 hrs
HeLa [6] = experiment: Reduction in Beta tubulin mRNA expression in human HeLa cells at 1 uM measured upto 16 hrs by qPCR analysis; format: functional, cell-based
Tubulin (Sus scrofa) = Tubulin (Sus scrofa) (UniProt P02554+P02550); experiment: Induction of porcine tubulin aggregation assessed as formation of spherical sized tubulin aggregates at 20 uM incubated for 4 hrs by TEM analysis; format: protein assay
[7] = target: T2, Tubulin beta (Homo sapiens); experiment: Induction of Beta tubulin degradation in human HeLa cells at 1 uM incubated for 16 hrs in presence of pironetin by immunoblot analysis; format: cell-based
[8] = target: T2, Tubulin beta (Homo sapiens); experiment: Induction of Beta tubulin degradation in human HCT-116 cells incubated for 24 hrs by immunoblot analysis; format: cell-based; settings: dose 0.3-30 µM, DDE = dose-dependent effect
[9] = target: T2, Tubulin beta (Homo sapiens); experiment: Induction of Beta tubulin degradation in human HeLa cells at 0.001 to 100 uM incubated for 16 hrs by immunoblotting analysis; format: cell-based; settings: dose 0.001-100 µM
HeLa [10] = experiment: Antiproliferative activity against human HeLa cells assessed as cell viability at 0.001 to 100 uM incubated for 48 hrs by MTT assay; format: functional, cell-based; settings: dose 0.001-100 µM

Sequence of Tubulin (Sus scrofa) (P02550 whole entry, looked up): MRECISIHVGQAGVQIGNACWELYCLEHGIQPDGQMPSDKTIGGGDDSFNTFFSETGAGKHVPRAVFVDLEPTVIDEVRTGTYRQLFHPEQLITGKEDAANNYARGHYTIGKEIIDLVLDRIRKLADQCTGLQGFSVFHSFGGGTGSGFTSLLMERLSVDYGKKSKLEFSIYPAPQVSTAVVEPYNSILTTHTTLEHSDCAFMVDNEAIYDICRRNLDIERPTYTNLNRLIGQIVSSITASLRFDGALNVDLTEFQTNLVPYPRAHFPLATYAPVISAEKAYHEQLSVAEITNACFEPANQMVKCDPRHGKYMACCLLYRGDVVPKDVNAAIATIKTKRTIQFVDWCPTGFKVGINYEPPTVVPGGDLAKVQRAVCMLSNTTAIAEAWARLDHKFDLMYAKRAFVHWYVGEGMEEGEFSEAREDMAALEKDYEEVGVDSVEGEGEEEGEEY
Sequence of Tubulin (Sus scrofa) (P02554 whole entry, looked up): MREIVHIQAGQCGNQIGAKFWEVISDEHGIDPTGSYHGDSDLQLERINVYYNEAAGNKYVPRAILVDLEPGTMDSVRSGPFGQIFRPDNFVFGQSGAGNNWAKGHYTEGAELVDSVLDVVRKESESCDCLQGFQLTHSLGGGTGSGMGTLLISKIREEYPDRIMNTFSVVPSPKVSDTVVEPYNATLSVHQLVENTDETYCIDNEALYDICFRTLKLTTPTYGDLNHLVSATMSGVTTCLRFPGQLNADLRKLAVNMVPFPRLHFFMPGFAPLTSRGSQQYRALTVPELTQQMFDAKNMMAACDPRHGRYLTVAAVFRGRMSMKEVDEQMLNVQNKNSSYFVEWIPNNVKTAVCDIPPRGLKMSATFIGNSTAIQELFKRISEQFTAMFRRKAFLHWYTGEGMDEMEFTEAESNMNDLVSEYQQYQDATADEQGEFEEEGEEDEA

Activity [1]: Dde | Activity [2]: Dde | Activity [3]: Dde | Activity [4]: Active | Activity (Tubulin (Homo sapiens)): Active | Activity (Tubulin (Sus scrofa)): Active | Activity [7]: Active | Activity [8]: Dde
SMILES: COc1cccc(-c2cc(NCc3ccc4c(c3)OCO4)nc(N)n2)c1
Activity (HeLa [5]): Active | Activity (HeLa [6]): Active

Activity [9]: Active
SMILES: c1ccc(Oc2cccc(CNc3cc4ccccc4cn3)c2)cc1
Activity (HeLa [10]): Active

Activity [9]: Active
SMILES: c1ccc(Oc2cccc(CNc3ccccn3)c2)cc1
Activity (HeLa [10]): Active

Activity [9]: Active
SMILES: c1ccc(CNc2cc3c(cn2)[nH]c2ccccc23)cc1
Activity (HeLa [10]): Active
